These results are taken from patent US7122555B2, “Pyrido [2,1-a] isoquinoline derivatives” (Hoffmann-la Roche Inc., priority 2003, dated 2006).

The target in this assay is human DPP-IV (Homo sapiens, UniProt P27487). Kind of assay: DPP-IV activity assay (fluorogenic or colorimetric substrate), IC50 determination.
human DPP-IV, sequence (P27487 31-766): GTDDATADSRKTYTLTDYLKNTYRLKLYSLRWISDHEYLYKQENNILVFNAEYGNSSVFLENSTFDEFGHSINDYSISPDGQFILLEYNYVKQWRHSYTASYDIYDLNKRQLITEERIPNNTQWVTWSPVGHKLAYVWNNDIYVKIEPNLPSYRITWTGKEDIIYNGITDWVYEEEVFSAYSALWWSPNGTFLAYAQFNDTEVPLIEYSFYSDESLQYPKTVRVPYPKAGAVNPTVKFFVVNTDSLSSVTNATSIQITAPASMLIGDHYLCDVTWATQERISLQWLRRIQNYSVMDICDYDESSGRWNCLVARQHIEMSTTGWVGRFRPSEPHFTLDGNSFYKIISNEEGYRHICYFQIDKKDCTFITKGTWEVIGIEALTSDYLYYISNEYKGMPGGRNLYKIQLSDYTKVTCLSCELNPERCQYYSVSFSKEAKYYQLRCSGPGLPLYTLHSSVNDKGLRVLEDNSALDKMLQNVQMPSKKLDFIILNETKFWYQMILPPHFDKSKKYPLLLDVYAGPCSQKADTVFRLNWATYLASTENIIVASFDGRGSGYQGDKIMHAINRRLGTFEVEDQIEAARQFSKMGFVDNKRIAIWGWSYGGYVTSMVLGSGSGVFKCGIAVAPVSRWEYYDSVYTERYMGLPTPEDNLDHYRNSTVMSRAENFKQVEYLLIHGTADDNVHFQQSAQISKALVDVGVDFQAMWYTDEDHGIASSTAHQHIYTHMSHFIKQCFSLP
Protocol: Activity of DPP-IV inhibitors are tested with natural human DPP-IV derived from a human plasma pool or with recombinat human DPP-IV. Human citrate plasma from different donors is pooled, filterted through a 0.2 micron membrane under sterile conditions and aliquots of 1 ml are shock frozen and stored at −120° C. until used. In the colorimetric DPP-IV assay 5 to 10 μl human plasma and in the fluorometric assay 1.0 μl of human plasma in a total assay volume of 100 μl is used as an enzyme source. […] In the calorimetric DPP-IV assay 20 ng rec.-h DPP-IV and in the fluorometric assay 2 ng rec-h DPP-IV in a total assay volume of 100 μl is used as an enzyme source.
Initial rate constants are calculated by best fit linear regression.
The absorption of pNA liberated from the colorimetric substrate is detected in a Packard SpectraCount at 405 nm continuosly every 2 minutes for 30 to 120 minutes. Initial rate constants are calculated by best fit linear regression.
DPP-IV activity assays are performed in 96 well plates at 37° C. in a total assay volume of 100 μl. The assay buffer consists of 50 mM Tris/HCl pH 7.8 containing 0.1 mg/ml BSA and 100 mM NaCl. Test compounds are solved in 100% DMSO, diluted to the desired concentration in 10% DMSO/H2O. The final DMSO concentration in the assay is 1% (v/v). At this concentration enzyme inactivation by DMSO is <5%. Compounds are with (10 minutes at 37° C.) and without preincubation with the enzyme. Enzyme reactions are started with substrate application followed by immediate mixing.
Kinetic parameters of the enzyme reaction are calculated at at least 5 different substrate concentrations and at least 5 different test compound concentrations.
On to `COc1cc2c(cc1OC)[C@@H]1C[C@H](N)[C@@H](C(=O)N3CCSC3)CN1CC2` (racemic) [Example 2, (RS,RS,RS)-(2-Amino-9,10-dimethoxy-1,3,4,6,7,11b-hexahydro-2H-pyrido[2,1-a]isoquinolin-3-yl)-thiazolidin-3-yl-methanone], for which the 50% inhibitory concentration (IC50) (in general, the concentration that gives 50% inhibition) stood at 41 nM. This counts as double-digit nanomolar.
Under `COc1cc2c(cc1OC)[C@@H]1C[C@H](N)[C@@H](N3CCC=CC3=O)CN1CC2` (racemic) [Example 12, (RS,RS,RS)-1-(2-Amino-9,10-dimethoxy-1,3,4,6,7,11b-hexahydro-2H-pyrido [2,1-a]isoquinolin-3-yl)-5,6-dihydro-1H-pyridin-2-one] stands 33 nM; under `COc1cc2c(cc1OC)[C@@H]1C[C@H](N)[C@@H](N3CCCCS3(=O)=O)CN1CC2` [Example 16, (S,S,S)-3-(1,1-Dioxo-[1,2]thiazinan-2-yl)-9,10-dimethoxy-1,3,4,6,7,11b-hexahydro-2H-pyrido[2,1-a]isoquinolin-2-ylamine], 131 nM.
